How the values were obtained:
Assay in all cases: relative viability (nuclei count vs DMSO), 5 days (fraction); higher = more cells survive
[1] = compound: CC[C@@H]1C(=O)N(C)c2cnc(Nc3ccc(C(=O)NC4CCN(C)CC4)cc3OC)nc2N1C1CCCC1 [BI-2536] + COc1cc2c(Oc3ccc(NC(=O)C4(C(=O)Nc5ccc(F)cc5)CC4)cc3F)ccnc2cc1OCCCN1CCOCC1 [Foretinib] (partner 0.25 µM)
Outline: (§1)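 Nuclei were stained with Hoechst during a one-step fixation (final 0.05% Triton X-100, 1% formaldehyde, 1 ug/ml Hoechst) carried out 5 days after dosing, then counted on 4× images. The cells, lung cancer lines in 1536-well plates, had been dosed by pin tool the day after seeding with one drug alone or a fixed anchor-drug dose plus five library-drug doses (not always all listed) in √10 steps. Relative viability is the nuclei count in treated wells divided by that in vehicle wells, and each value is the median of duplicate plates.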

[2] = compound: CC1CC(=O)N(C2=CN=C(N=C2N1C3CCCC3)NC4=C(C=C(C=C4)C(=O)NC5CCN(CC5)C)OC)C [NPK76-II-72-1] + Nc1nc2[nH]cc(CCc3ccc(C(=O)N[C@@H](CCC(=O)O)C(=O)O)cc3)c2c(=O)[nH]1 [Pemetrexed] (partner 0.2 µM)
Outline: as §1

[3] = compound: CC[C@@H]1C(=O)N(C)c2cnc(Nc3ccc(C(=O)NC4CCN(C)CC4)cc3OC)nc2N1C1CCCC1 [BI-2536] + CC(=O)Nc1cccc(-n2c(=O)n(C3CC3)c(=O)c3c(Nc4ccc(I)cc4F)n(C)c(=O)c(C)c32)c1 [Trametinib] (partner 0.02 µM)
Outline: as §1

[4] = compound: CC[C@@H]1C(=O)N(C)c2cnc(Nc3ccc(C(=O)NC4CCN(C)CC4)cc3OC)nc2N1C1CCCC1 [BI-2536] + Nc1nc2[nH]cc(CCc3ccc(C(=O)N[C@@H](CCC(=O)O)C(=O)O)cc3)c2c(=O)[nH]1 [Pemetrexed] (partner 0.2 µM)
Outline: as §1

Row | Cell Line | relative viability ([1]; first compound 0.01 µM) | relative viability ([1]; first compound 0.03162 µM) | relative viability ([1]; first compound 0.1 µM) | relative viability ([1]; first compound 0.3162 µM) | relative viability ([1]; first compound 1 µM) | relative viability ([2]; first compound 0.01 µM) | relative viability ([2]; first compound 0.03162 µM) | relative viability ([2]; first compound 0.1 µM) | relative viability ([2]; first compound 0.3162 µM) | relative viability ([2]; first compound 1 µM) | relative viability ([3]; first compound 0.01 µM) | relative viability ([3]; first compound 0.03162 µM) | relative viability ([3]; first compound 0.1 µM) | relative viability ([3]; first compound 0.3162 µM) | relative viability ([3]; first compound 1 µM) | relative viability ([4]; first compound 0.01 µM) | relative viability ([4]; first compound 0.03162 µM) | relative viability ([4]; first compound 0.1 µM) | relative viability ([4]; first compound 0.3162 µM) | relative viability ([4]; first compound 1 µM)
1 | Calu-6 | 0.8 | 0.613 | 0.281 | 0.0815 | 0.0737 | – | – | – | – | – | – | – | – | – | – | – | – | – | – | –
2 | LC-2-ad | 0.909 | 0.386 | 0.289 | 0.285 | 0.322 | 0.24 | 0.281 | 0.269 | 0.266 | 0.272 | 0.913 | 0.803 | 0.672 | 0.224 | 0.239 | 0.281 | 0.234 | 0.171 | 0.165 | 0.177
3 | CAL-12T | 1.08 | 0.951 | 0.503 | 0.173 | 0.187 | 0.927 | 1.1 | 1.14 | 0.943 | 1.5 | 0.344 | 0.338 | 0.383 | 0.147 | 0.157 | 1.04 | 0.955 | 0.623 | 0.195 | 0.131
4 | RERF-LC-KJ | 1 | 0.88 | 0.897 | 0.189 | 0.213 | 0.469 | 0.505 | 0.46 | 0.439 | 0.506 | 0.884 | 0.953 | 0.527 | 0.186 | 0.225 | 0.46 | 0.46 | 0.31 | 0.186 | 0.213
5 | NCI-H1650 | 1.16 | 1.14 | 0.484 | 0.135 | 0.115 | 0.325 | 0.368 | 0.345 | 0.399 | 0.358 | 0.674 | 0.497 | 0.456 | 0.136 | 0.136 | 0.383 | 0.297 | 0.288 | 0.166 | 0.136
6 | BEN | 0.564 | 0.818 | 0.361 | 0.243 | 0.248 | 0.794 | 0.683 | 0.739 | 0.755 | 0.934 | 1.05 | 0.813 | 0.959 | 0.515 | 0.435 | 0.676 | 0.83 | 0.447 | 0.325 | 0.422
7 | EMC-BAC-2 | 1.03 | 1.18 | 0.947 | 0.202 | 0.194 | 0.451 | 0.497 | 0.446 | 0.451 | 0.453 | 0.854 | 0.851 | 0.819 | 0.303 | 0.277 | 0.44 | 0.429 | 0.367 | 0.309 | 0.285
8 | LU99A | 0.716 | 0.812 | 0.329 | 0.222 | 0.175 | 0.181 | 0.172 | 0.205 | 0.163 | 0.22 | 0.525 | 0.647 | 0.562 | 0.196 | 0.192 | 0.225 | 0.193 | 0.165 | 0.152 | 0.143
9 | ABC-1 | 1.18 | 0.868 | 0.711 | 0.249 | 0.187 | – | – | – | – | – | – | – | – | – | – | – | – | – | – | –
10 | NCI-H2170 | 1.03 | 1.02 | 0.799 | 0.219 | 0.208 | 0.407 | 0.26 | 0.269 | 0.245 | 0.283 | 0.945 | 0.916 | 0.775 | 0.137 | 0.176 | 0.285 | 0.254 | 0.183 | 0.161 | 0.163
11 | NCI-H1299 | 1.15 | 1.09 | 0.773 | 0.308 | 0.242 | – | – | – | – | – | – | – | – | – | – | – | – | – | – | –
12 | EBC-1 | 0.0994 | 0.0943 | 0.0905 | 0.0859 | 0.0908 | – | – | – | – | – | – | – | – | – | – | – | – | – | – | –
13 | NCI-H1792 | – | – | – | – | – | – | 0.961 | 0.627 | 0.636 | 1.06 | 0.604 | 0.417 | 0.395 | 0.0597 | 0.0491 | 0.779 | 0.792 | 0.328 | 0.0539 | 0.0316
14 | HCC-44 | – | – | – | – | – | 0.65 | 0.689 | 0.613 | 0.619 | 0.684 | 1.04 | 1.04 | 1.03 | 0.323 | 0.275 | 0.738 | 0.612 | 0.651 | 0.38 | 0.246
15 | A549 | 0.962 | 0.901 | 0.427 | 0.0288 | 0.0231 | – | – | – | – | – | – | – | – | – | – | – | – | – | – | –
16 | NCI-H1563 | 0.905 | 1.06 | 0.923 | 0.67 | 0.552 | 0.581 | 0.767 | 0.839 | 0.604 | 0.767 | – | – | – | – | – | 0.736 | 0.789 | 0.744 | 0.413 | 0.473
17 | IA-LM | 1.24 | 1.14 | 0.518 | 0.0587 | 0.0439 | – | – | – | – | – | – | – | – | – | – | – | – | – | – | –
18 | NCI-H1703 | – | 0.296 | 0.191 | 0.152 | 0.14 | – | – | – | – | – | – | – | – | – | – | – | – | – | – | –
19 | NCI-H727 | 0.818 | 0.888 | 0.711 | 0.515 | 0.371 | – | – | – | – | – | 0.366 | 0.364 | 0.379 | 0.362 | 0.332 | – | – | – | – | –
20 | NCI-H1648 | – | – | – | – | – | 0.633 | 0.648 | 0.702 | 0.739 | 0.732 | 0.463 | 0.409 | 0.434 | 0.28 | 0.289 | 0.878 | 0.511 | 0.41 | 0.293 | 0.265

From the supplement of paper PMC10307832
